Experimental data taken from patent US10774084B2, “Adenine derivatives and their use as UV-photoprotective agents” (UNIVERZITA PALACKEHO V OLOMOUCI, priority 2015, dated 2020).

Key:
[1] = system: Normal human dermal fibroblasts (NHDF); experiment: In vitro UVA/UVB photoprotection test on NHDF (Example 9); format: cell-based
Source text: Normal human dermal fibroblasts (NHDF) were used as an in vitro model. Cells were isolated from tissue specimens obtained from healthy patients undergoing plastic surgery at the Department of Plastic and Aesthetic Surgery (University Hospital Olomouc). The use of skin tissue was in accordance with the Ethics Committee of the University Hospital and Faculty of Medicine and Dentistry, Palacky University, Olomouc and all patients signed written informed consent. Fibroblasts were used between the 2nd and 4th passage. For all experiments the fibroblasts were seeded onto 96-well plates at a density of 0.8×10^5 cells/ml (0.2 ml per well) of cultivation medium (DMEM supplemented with fetal calf serum (10%, v/v), penicillin ([…]) and streptomycin (100 U/ml)). Test substances included compounds number 1, 3, 9, 15 and 20. Compounds were dissolved in DMSO and then diluted in serum free medium (DMEM supplemented with penicillin ([…]) and streptomycin (100 U/ml)). After 24 h incubation was cultivation medium changed to serum free medium containing test compound or DMSO (negative control). The final applied concentrations range was 3.9-31.3 μmol/ll. As a control serum free medium supplemented with appropriate concentration of DMSO (0.5%, v/v) was used. Rosmarinic acid was used as positive control. Each test compound was in parallel applied on two 96-well plates with NHDF. After 60 minutes incubation medium with test compound was discarded, cells were washed two-times with PBS and PBS supplemented with glucose (1 mg/ml) was applied. To study UVA photoprotection, a plate was exposed to a cytotoxic dose of UVA radiation (7.5 J/cm^2) using a solar simulator SOL 500 (Dr. Hoenle Technology, Germany) equipped with a H1 filter transmitting wavelengths of 320-400 nm. To study UVB photoprotection, a plate was exposed to a cytotoxic dose of UVB radiation (150 mJ/cm^2) using the solar simulator equipped with a H2 filter transmitting wavelengths of 295-320 nm. Intensity of UVA or UVB radiation was evaluated before each irradiation by UVA- or UVB-meter. Control (non-irradiated) plates were for the period of irradiation incubated in dark. After UVA or UVB exposure PBS with glucose was discarded and serum free medium was applied. After 24 hours (37° C., 5% CO2) cell damage was evaluated by neutral red (NR) incorporation into viable cells. Medium was discarded and NR solution (0.03% w/v, PBS) was applied. After 60 minutes NR solution was discarded, cells were fixed with a mixture of formaldehyde (0.5%, v/v) and CaCl2 (1%, m/v) in ratio 1:1 and then NR was dissolved in methanol (50%, v/v) with acetic acid (1%, v/v). After 5 minutes of intensive shaking absorbance was measured at 540 nm. Experiments were performed in four independent repetitions with use of cells from four donors to minimize individual sensitivity of donor cells. Photoprotective effect was evaluated by comparison of experimental data (absorbance) of test compounds with a positive control and a negative control (according to the following equation:
[formula] • As . . . absorbance of sample (cells pre-incubated with test compounds in serum free medium and irradiated) • Anc . . . absorbance of negative control (cells pre-incubated with s DMSO in serum free medium and non-irradiated=incubated in dark) • Apc . . . absorbance of positive control (cells pre-incubated with s DMSO in serum free medium and irradiated)

HaCaT = experiment: In vitro UVA/UVB photoprotection test on HaCaT; format: cell-based, human
Procedure: Spontaneously Immortalized Aneuploid Human Keratinocyte Cell Line (HaCaT) was bought from CLS (Eppeheim, Germany) and used as an in vitro model. For all experiments the keratinocytes were seeded onto 96-well plates at a density of 1.6×10^5 cells/ml (0.2 ml per well) of growth medium (DMEM supplemented with fetal bovine serum (10%), penicillin ([…]) and streptomycin (100 U/ml)).
Test substances included compounds number 3, 9, 15 and 20. Compounds were dissolved in DMSO and then diluted in serum free medium (DMEM supplemented penicillin ([…]) and streptomycin (100 U/ml)). After 24 h incubation was growth medium changed to serum free medium containing test compounds. The final applied concentration range was 3.9-31.25 μmol/l. As a control, serum free medium supplemented with appropriate concentration of DMSO (0.5%, v/v) was used. Rosmarinic acid was used as positive control. After 60 minutes incubation with test compounds medium was discarded, cells were washed two-times with PBS and PBS supplemented with glucose (1 mg/ml) was applied. To study UVA photoprotection, a plate was exposed to a cytotoxic dose of UVA radiation (10 J/cm2) using a solar simulator SOL 500 (Dr. Hoenle Technology, Germany) equipped with a H1 filter transmitting wavelengths of 320-400 nm. To study UVB photoprotection, a plate was exposed to a cytotoxic dose of UVB radiation (150 mJ/cm2) using the solar simulator equipped with a H2 filter transmitting wavelengths of 295-320 nm. Intensity of UVA or UVB radiation was evaluated before each irradiation by UVA- or UVB-meter. Control (non-irradiated) plates were for the period of irradiation incubated in dark. After UVA or UVB exposure PBS with glucose was discarded and serum free medium was applied. After 24 hours (37° C., 5% CO2) cell damage was evaluated by neutral red (NR) incorporation into viable cells. Medium was discarded and NR solution (0.03% w/v, PBS) was applied. After 60 minutes NR solution was discarded, cells were fixed with a mixture of formaldehyde (0.5%, v/v) and CaCl2 (1%, m/v) in ratio 1:1 and then NR was dissolved in methanol (50%, v/v) with acetic acid (1%, v/v).
After 5 minutes of intensive shaking absorbance was measured at 540 nm. Experiments were performed in four independent repetitions with use of […] to minimize individual sensitivity of donor cells. Photoprotective effect was evaluated by comparison of experimental data (absorbance) of test compounds with a positive control and a negative control (according to the following equation: […]
As . . . absorbance of sample (cells pre-incubated with test compounds in serum free medium and irradiated)
Anc . . . absorbance of negative control (cells pre-incubated with s DMSO in serum free medium and non-irradiated=incubated in dark)
Apc . . . absorbance of positive control (cells pre-incubated with s DMSO in serum free medium and irradiated)

[2] = Table 17: UVA-induced damage (10 J/cm2), 3.9 μmol/l
[3] = Table 17: UVA-induced damage (10 J/cm2), 7.8 μmol/l
[4] = Table 17: UVA-induced damage (10 J/cm2), 15.6 μmol/l
[5] = Table 17: UVA-induced damage (10 J/cm2), 31.3 μmol/l
[6] = Table 18: titled UVA-induced damage, 3.9 μmol/l
[7] = Table 18: titled UVA-induced damage, 7.8 μmol/l
[8] = Table 18: titled UVA-induced damage, 15.6 μmol/l
[9] = Table 18: titled UVA-induced damage, 31.3 μmol/l

SMILES	Protection (%) ([1]; UVA 7.5 J/cm^2, 3.9 μmol/l)	Protection (%) ([1]; UVA 7.5 J/cm^2, 7.8 μmol/l)	Protection (%) ([1]; UVA 7.5 J/cm^2, 15.6 μmol/l)	Protection (%) ([1]; UVA 7.5 J/cm^2, 31.3 μmol/l)	Protection (%) ([1]; UVB 150 mJ/cm^2, 3.9 μmol/l)	Protection (%) ([1]; UVB 150 mJ/cm^2, 7.8 μmol/l)	Protection (%) ([1]; UVB 150 mJ/cm^2, 15.6 μmol/l)	Protection (%) ([1]; UVB 150 mJ/cm^2, 31.3 μmol/l)	Protection (%) (HaCaT; [2])	Protection (%) (HaCaT; [3])	Protection (%) (HaCaT; [4])	Protection (%) (HaCaT; [5])	Protection (%) (HaCaT; [6])	Protection (%) (HaCaT; [7])	Protection (%) (HaCaT; [8])	Protection (%) (HaCaT; [9])
c1csc(CNc2ncnc3c2ncn3C2CCCO2)c1 (stereo not shown) [Compound 9, 6-(thiophen-2-ylmethylamino)-9-(tetrahydrofuran-2-yl)purine]	41.3%	44.4%	45.7%	52.0%	34.9%	62.6%	64.4%	68.7%	72.1%	70.3%	66.8%	61.4%	48.8%	56%	55.7%	56.5%
Clc1nc(NCC2CCCO2)c2ncn(C3CCCO3)c2n1 (stereo not shown) [Compound 20, 2-chloro-6-(tetrahydrofuran-2-ylmethylamino)-9-(tetrahydrofuran-2-yl)purine]	5.9%	10.7%	11.5%	16.2%	39.8%	58.3%	58.2%	60%	12.3%	25.0%	28.9%	31.6%	45.7%	66.2%	64%	75.2%
Clc1nc(NCc2ccco2)c2ncn(C3CCCO3)c2n1 (stereo not shown) [Compound 15, 2-chloro-6-furfurylamino-9-(tetrahydrofuran-2-yl)purine]	24.5%	29.9%	33.0%	35.3%	39.9%	55.2%	53%	60.2%	41.2%	56.9%	55.3%	76.7%	12.3%	35.3%	37.8%	51.3%
OCc1ccc(CNc2ncnc3c2ncn3C2CCCO2)o1 (stereo not shown) [Compound 3, 6-(5-hydroxymethylfuran-2-ylmethylamino)-9-(tetrahydrofuran-2-yl)purine]	14.7%	16.3%	24.6%	25.8%	43.6%	53.1%	47.4%	48.4%	26.8%	34.3%	46.0%	50.7%	27.3%	46.5%	47.8%	53.8%
